4 molecules from patent publication US11214574B2, “Selective inhibitors of protein arginine methyltransferase 5 (PRMT5)” (Prelude Therapeutics, Incorporated, priority 2018, dated 2022) can be followed below.

In one assay the target is PRMT5/MEP50 complex (Homo sapiens (Human), UniProt O14744). The assay can be described thus: PRMT5 biochemical assay (SPA, 3H-SAM). To be noted: PRMT5/MEP50 2.5 nM, 300 nM AcH4-23 substrate, 1 μM 3H-SAM. How it is done:
Biochemical Assay Protocol
Compounds were solubilized and 3-fold diluted in 100% DMSO. […] Standard reactions were performed in a total volume of 30 μl in assay buffer, with 300 nM histone H4 based AcH4-23 (Anaspec: AS-65002) as substrate. To this was added the PRMT5/MEP50 complex diluted to provide a final assay concentration of 2.5 nM and the compounds were allowed to preincubate for 20 minutes at 37° C. The reaction was initiated by adding S-[3H-methyl]-adenosyl-L-methionine (PerkinElmer: NET155001MC) to final concentration of 1 μM. Following a 30 minutes incubation at 37° C., the reaction was stopped by adding 25 μL of 8M Guanidine HCl. Prepare streptavidin YSI SPA beads (Perkinelmer: RPNQ0012) at 0.3 mg/mL in assay buffer. To each reaction, add 150 μL of SPA beads suspension, and incubated while shaking at room temperature for 30 minutes. The plate was centrifuged at 100×g for 30 second before reading in a scintillation counter. IC50 values were determined by fitting the data to the standard 4 parameters with Hill Slope using GraphPad Prism software.

The test system of assay [1] is γ-globin expression in K562 cells. The assay can be described thus: γ-globin induction by quantitative PCR in K562 cells. The format is cell-based. To be noted: 0.1 μM, 6 days, N=1. As to the method: Compounds were dissolved in DMSO to make 10 mM stock solutions, and further diluted to make 1 mM and 0.1 mM stocks.
K562 cells were purchased from ATCC and maintained in Iscove's DMEM (Corning Cellgro, Catalog #15-016-CVR) supplemented with 10% v/v FBS (GE Healthcare, Catalog #: SH30910.03) in a CO2 incubator (5% CO2) at 37° C. Cells were plated at a density of 5×10^5 cells/ml and treated with compound at final concentrations of 0.1 and 1 μM. Media and compound were renewed after 3 days in culture and cells were collected for RNA isolation after 6 days of treatment.
Assessment of γ-Globin Induction by Quantitative PCR
RNA was isolated using Quick-RNA Microprep kit (Zymo Research, Catalog #Z1050), cDNA was synthesized using qScript cDNA SuperMix (Quantabio, Catalog #95048). Quantitative PCR for γ-globin was performed using PerfeCTa SYBR Green FastMix (Quantabio, Catalog #95071) on Bio-Rad CFX Connect Real-Time PCR Detection System. Gene expression analysis was performed using CFX Manager software.
Assessment of γ-Globin Induction by Quantitative PCR in K562 Cells
Compounds were dissolved in DMSO to make 10 mM stock solutions, and further diluted to make 1 mM and 0.1 mM stocks. K562 cells were purchased from ATCC and maintained in Iscove's DMEM (Corning Cellgro, Catalog #15-016-CVR) supplemented with 10% v/v FBS (GE Healthcare, Catalog #: SH30910.03) in a CO2 incubator (5% CO2) at 37° C. […]

Assay [2] concerns sDMA marks (SmD3me2s) in Granta-519 cells. The assay can be described thus: Western blotting for symmetric di-methyl arginine (sDMA) marks in Granta-519 cells. The class given is cell-based. Conditions: Homo sapiens, 72 h; Granta-519 cell line (values in square brackets), 3 days treatment. As to the method: Cell Treatment and Western Blotting for Detecting Symmetric Di-Methyl Arginine (sDMA) Marks
Compound titration and cell culture: Compounds were dissolved in DMSO to make 10 mM stock and 3-fold series dilutions were further conducted to make working stocks top at 1 mM. Granta-519 cells were maintained in PRMI 1640 (Corning Cellgro, Catalog #: 10-040-CV) supplemented with 10% v/v FBS (GE Healthcare, Catalog #: SH30910.03) and U-87 MG cells were maintained in DMEM (Corning Cellgro, Catalog #: 10-013-CV) with 10% FBS and 2 mM Glutamin (Corning Cellgro, Catalog #25005CV).
To determine enzyme inhibition IC50 values in Granta-519 and U-87 MG cells using Western Blot analysis. One day before experiment, Granta-519 cells were passaged to a density of 0.5×10^6 cells/ml. U-87 MG cells were trypsinized and 4×10^5 cells were seeded into 6-well plates and allow to grow overnight. […]
Cells were harvested 3 days later, resuspended in 15 uL PBS, lysed in 4% SDS, and homogenized by passing through homogenizer column (Omega Biotek, Catalog #: HCR003). Total protein concentrations were determined by BCA assay (ThermoFisher Scientific, Catalog #: 23225). […] SmD3me2s bands were quantified by ImageJ. […] IC50 values were calculated using Graphpad Prism ([Inhibitor] vs. normalized response—Variable slope).
In general terms: A western blot detects proteins with antibodies after separation by electrophoresis.

PRMT5/MEP50 complex, sequence (O14744 whole entry): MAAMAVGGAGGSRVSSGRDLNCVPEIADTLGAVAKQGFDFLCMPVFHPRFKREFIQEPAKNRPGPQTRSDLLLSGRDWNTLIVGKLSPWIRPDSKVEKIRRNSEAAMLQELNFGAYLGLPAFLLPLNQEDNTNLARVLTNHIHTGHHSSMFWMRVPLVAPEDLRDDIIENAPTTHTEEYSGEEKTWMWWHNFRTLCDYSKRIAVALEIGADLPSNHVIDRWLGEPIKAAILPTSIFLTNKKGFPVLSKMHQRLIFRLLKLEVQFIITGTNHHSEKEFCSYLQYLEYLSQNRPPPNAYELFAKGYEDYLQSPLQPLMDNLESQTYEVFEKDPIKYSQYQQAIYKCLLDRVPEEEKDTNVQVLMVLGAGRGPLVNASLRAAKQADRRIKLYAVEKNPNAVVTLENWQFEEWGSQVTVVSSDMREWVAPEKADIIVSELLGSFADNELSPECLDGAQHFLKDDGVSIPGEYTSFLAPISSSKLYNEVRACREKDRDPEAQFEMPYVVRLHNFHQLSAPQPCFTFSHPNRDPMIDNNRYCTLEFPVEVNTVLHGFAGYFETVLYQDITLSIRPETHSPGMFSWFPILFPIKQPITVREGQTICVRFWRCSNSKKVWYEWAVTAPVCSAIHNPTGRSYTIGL
PRMT5/MEP50 complex, sequence (Q9BQA1 whole entry partner): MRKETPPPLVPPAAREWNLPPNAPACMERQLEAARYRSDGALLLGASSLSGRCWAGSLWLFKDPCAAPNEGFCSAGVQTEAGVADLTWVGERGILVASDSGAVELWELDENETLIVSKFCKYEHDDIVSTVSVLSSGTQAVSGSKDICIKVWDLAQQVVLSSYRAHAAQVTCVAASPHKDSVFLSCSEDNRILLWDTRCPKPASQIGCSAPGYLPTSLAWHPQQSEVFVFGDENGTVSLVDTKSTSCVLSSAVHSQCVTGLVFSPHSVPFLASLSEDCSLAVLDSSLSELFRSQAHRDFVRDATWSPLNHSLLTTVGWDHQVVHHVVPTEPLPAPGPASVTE

As usually defined, the IC50 is the concentration that gives 50% inhibition. On PRMT5/MEP50 complex, `Cc1ncnc2c1ccn2[C@@H]1O[C@H]([C@@H]2OCCCc3cc(Cl)ccc32)[C@@H](O)[C@H]1O` [Example 101, (2S,3S,4R,5R)-2-((R)-7-chloro-1,3,4,5-tetrahydrobenzo[c]oxepin-1-yl)-5-(4-methyl-7H-pyrrolo[2,3-d]pyrimidin-7-yl)tetrahydrofuran-3,4-diol] had an IC50 of 1580 nM.

As to `Nc1ncnc2c1ccn2[C@@H]1O[C@H]([C@@H]2OCc3ccc(Cl)cc32)[C@@H](O)[C@H]1O` [Example 5, (2R,3R,4S,5S)-2-(4-amino-7H-pyrrolo[2,3-d]pyrimidin-7-yl)-5-((R)-6-chloro-1,3-dihydroisobenzofuran-1-yl)tetrahydrofuran-3,4-diol], the “increase in expression of γ-globin” value in assay [1] was found to be 3 fold.

The molecule `Nc1ncnc2c1ccn2[C@@H]1O[C@H]([C@@H]2OCOCc3cc(Cl)ccc32)[C@@H](O)[C@H]1O` [Example 81, (2R,3R,4S,5S)-2-(4-amino-7H-pyrrolo[2,3-d]pyrimidin-7-yl)-5-((R)-7-chloro-1,5-dihydrobenzo[e][1,3]dioxepin-1-yl)tetrahydrofuran-3,4-diol] had a half-maximal inhibitory concentration (IC50) on PRMT5/MEP50 complex of 41.5 nM.

In turn, `Nc1ncnc2c1ccn2[C@@H]1C[C@H]([C@H]2OCc3cc(Cl)ccc32)[C@@H](O)[C@H]1O` [Example 2A, (1R,2S,3R,5S)-3-(4-amino-7H-pyrrolo[2,3-d]pyrimidin-7-yl)-5-((R)-5-chloro-1,3-dihydroisobenzofuran-1-yl)cyclopentane-1,2-diol] registered an IC50 in assay [2] of 27 nM.
